From patent US7402417B2, “P450 oxygenases and methods of use” (Washington State University Research Foundation, priority 2003, dated 2008)
Where two headings read alike, the source gives them in different places.

Columns and labels:
5α-hydroxylase = conditions: 100 μM inhibitor; cited from earlier work
taxoid 5α-hydroxylase = taxoid 5α-hydroxylase (Taxus cuspidata, UniProt Q6WG30); experiment: Kinetic evaluation of taxadiene isomers, average of recombinant and T. media microsomes (FIG. 4); assay type: biochemical; conditions: average of recombinant (Sf9) and T. media microsomes; substrate 1 to 500 μM
taxoid 5α-hydroxylase, sequence (Q6WG30 whole entry): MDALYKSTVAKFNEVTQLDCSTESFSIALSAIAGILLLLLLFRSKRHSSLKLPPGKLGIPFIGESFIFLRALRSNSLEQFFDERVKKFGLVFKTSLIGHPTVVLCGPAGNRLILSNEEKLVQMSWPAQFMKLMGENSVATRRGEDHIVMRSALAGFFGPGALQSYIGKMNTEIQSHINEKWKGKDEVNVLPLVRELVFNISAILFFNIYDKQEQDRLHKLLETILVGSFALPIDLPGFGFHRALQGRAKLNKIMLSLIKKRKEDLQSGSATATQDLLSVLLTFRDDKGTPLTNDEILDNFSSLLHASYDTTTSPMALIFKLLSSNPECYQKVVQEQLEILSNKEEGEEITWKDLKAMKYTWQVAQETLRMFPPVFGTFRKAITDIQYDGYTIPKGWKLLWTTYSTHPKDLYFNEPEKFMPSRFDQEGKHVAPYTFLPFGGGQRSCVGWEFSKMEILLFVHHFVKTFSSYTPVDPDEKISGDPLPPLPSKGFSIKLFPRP
Method: Taxa-4(20),11(12)-diene (◯) and taxa-4(5),11(12)-diene (●) were evaluated with microsomes from S. formgiperda cells enriched with 50 pmol recombinant taxoid 5α-hydroxylase (A), and with microsomes from T. media suspension cells containing about 50 pmol of total native cytochrome P450 (B). Substrate Concentration range was varied from 1 to 500 μM in all cases.

[1] = target: T1, recombinant taxoid 5α-hydroxylase (clone S1) (Taxus cuspidata, UniProt Q6WG30); experiment: Kinetic evaluation with Sf9 microsomes enriched in recombinant 5α-hydroxylase (radio-HPLC, Michaelis-Menten); assay type: biochemical; conditions: recombinant enzyme, 200 μM NADPH plus regenerating system
T1 construct: the S1 ORF was amplified using Pfu DNA polymerase and gene-specific primers containing a BamHI site immediately upstream of the start codon; made in house; host or cells: Spodoptera frugiperda Sf9 cells (baculovirus, pFastBac1); microsomal membranes
T1 sequence (Q6WG30 with tags, fused parts or gaps): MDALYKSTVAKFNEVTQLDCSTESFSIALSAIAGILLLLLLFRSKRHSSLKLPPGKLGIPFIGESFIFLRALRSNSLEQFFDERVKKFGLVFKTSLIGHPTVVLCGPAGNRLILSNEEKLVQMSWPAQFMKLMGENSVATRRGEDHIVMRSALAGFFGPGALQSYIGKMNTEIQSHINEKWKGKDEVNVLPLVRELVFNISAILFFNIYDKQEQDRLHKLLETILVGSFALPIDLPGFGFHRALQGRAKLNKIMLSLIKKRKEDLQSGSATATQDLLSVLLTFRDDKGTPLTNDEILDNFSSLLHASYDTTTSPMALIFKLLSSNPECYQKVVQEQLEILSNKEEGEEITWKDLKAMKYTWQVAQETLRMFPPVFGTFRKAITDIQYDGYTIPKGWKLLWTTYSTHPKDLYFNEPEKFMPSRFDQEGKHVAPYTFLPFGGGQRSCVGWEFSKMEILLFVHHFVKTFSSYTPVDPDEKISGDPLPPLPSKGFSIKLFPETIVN
Method: Kinetic constants for both isomers were next evaluated (at a saturating 200 μM concentration of NADPH plus regenerating system; Shimada and Yamazai, Meth. Mol. Biol., 107:85-93, 1998). The isolated microsomes were resuspended in 50 mM Hepes, pH 7.5, containing 1 mM DTT and 5% (v/v) glycerol, and the 1 ml reactions (˜600 μg protein, 50 μM substrate dissolved in DMSO, and the requisite cofactors (e.g., NADPH plus regenerating system) were run as described previously, with the identical protocols for product analysis (Jennewein et al., Proc. Natl. Acad. Sci. USA, 98:13595-13600, 2001). DMSO was without influence on the reaction. For kinetic evaluation, following the establishment of linear reaction conditions in protein concentration and time, the response to substrate concentration was plotted by the Michaelis-Menten method (Sigmaplot 7.0) using the calibrated radio-HPLC protocol for product determination Data from three independent experiments were pooled and the line of best fit taken (R^2>0.99).

[2] = target: T1, recombinant taxoid 5α-hydroxylase (clone S1); experiment: Substrate binding spectra with Sf9 microsomes enriched in recombinant 5α-hydroxylase; conditions: no NADPH
Method: Microsomes from S. frugiperda cells enriched with 200 pmol recombinant taxoid 5α-hydroxylase (clone S1) were employed. Taxa-4(20),11(12)-diene was assayed over a concentration range from 0.1 to 10 μM, and a binding constant (Ks) of 4±1 μM was determined (upper graph). Taxa-4(5),11(12)-diene was assayed over a concentration range of 0.1 to 20 μM and a binding constant (Ks) of 6.5±1.5 μM was determined (lower graph).
Binding spectra for both taxadiene isomers (in the absence of NADPH) were then recorded using the Sf9 cell microsomes enriched in the recombinant 5α-hydroxylase. Substrate binding spectra were obtained as described by Schenkin and Jausson, Methods Mol. Biol. (Cytochrome P450 Protocols), 107:25-33, 1998) using a Perkin-Elmer Lambda 18 spectrophotometer (Haudenschild et al., Arch. Biochem. Biophys., 379:127-136, 2000). Substrate binding spectra were recorded with up to 200 pmol of recombinant microsomal cytochrome P450 enzyme (as determined by CO-difference spectral analysis) per cuvette in 100 mM sodium phosphate buffer at pH 7.5. In preparation for binding studies, the taxadiene isomers were each dissolved in DMSO and 1 μl additions to the sample were made to a final concentration of 1.5% (v/v). For data analysis, Spectrum for Windows (Perkin-Elmer Corp., Wellesey, Mass.) and Sigmaplot 7.0 (SPSS Inc., Chicago, Ill.) were employed and experiments were run in triplicate.

[3] = system: microsomal taxa-4(5),11(12)-diene isomerase activity; experiment: Assay for microsomal taxadiene isomerase activity and pH-dependent isomerization; assay type: biochemical; conditions: Taxus or Spodoptera microsomes, no NADPH or no O2, or CO, miconazole, clotrimazole, boiled controls
Method: The assay for microsomal taxa-4(5),11(12)-diene isomerase activity (and the reverse isomerization) was carried out under standard cytochrome P450 oxygenase conditions but in the absence of NADPH or O2, or in the presence of inhibitory concentrations of CO, miconazole or clotrimazole (under conditions described previously for which the rate of 5α-hydroxylation is negligible (Hefner et al., Chem. Biol., 3:479489, 1996)). A number of additional, potential cofactors were also tested, including FAD, FADH2, FMN, FMNH2, NAD+, NADH and NADP+ (all at 2.5 mM), as well as MgCl2 (at 5.0 mM). The possibility of pH-dependent isomerization was tested by incubating each isomer (100 μM) in phosphate buffer (pH 4 to 10) for 12 hours at 31° C., with separation of isomers as described previously (Williams et al., Arch. Biochem. Biophys., 379:137-146, 2000).

[4] = system: native microsomal 5α-hydroxylase; conditions: native microsome preparations from yew stem tissue, determined previously; cited from earlier work
[5] = system: microsomal 5α-hydroxylase activity; experiment: Kinetic evaluation with Taxus suspension cell microsomes (radio-HPLC, total product); assay type: biochemical, Taxus media hicksii; conditions: T. media suspension cell microsomes, [20-3H] substrate
Method: Preparation of Taxus suspension cell microsomes and assays for microsomal 5α-hydroxylase activity were carried out as previously described (Hefner et al., Chem. Biol., 3:479489, 1996; Lovy Wheeler et al., Arch. Biochem. Biophys., 390:265-278, 2001) with the following modifications: Unelicited Taxus media hicksii cells were harvested 14 days after transfer, separated from the media, frozen in liquid N2 and ground to a fine powder with a mortar and pestle, with extraction and microsome preparation as described by Lovy Wheeler et al. (Arch. Biochem. Biophys., 390:265-278, 2001). The previously described radio-HPLC-based assay (Lovy Wheeler et al., Arch. Biochem. Biophys., 390:265-278, 2001) was employed to separate the substrate from taxadien-5α-ol and polyols derived therefrom which were summed as “total product” for the purpose of rate determination.
Following the confirmation of linear reaction conditions in protein concentration and time, kinetic constants were determined for both [20-3H]taxa-4(5),11(12)-diene and [20-3H]taxa-4(20),11(12)-diene with the optimized assay (Hefner et al., Chem. Biol., 3:479-489, 1996). The radio-HPLC-based assay previously described by Lovy Wheeler et al. (Arch. Biochem. Biophys., 390:265-278, 2001) was employed to permit summing of taxadien-polyols derived subsequently from the initially formed taxadienol product generated by this microsomal system that contains all of the downstream cytochrome P450 taxoid oxygenases of the pathway (Lovy Wheeler et al., Arch. Biochem. Biophys., 390:265-278, 2001).
Thus, one or more constituents of the crude Taxus microsomal protein preparation catalyze the reaction of taxa-4(5),11(12)-diene and taxa-4(20),11(12)-diene to the corresponding taxadienols.

[6] = target: T2, clone S1 taxoid 5α-hydroxylase in Saccharomyces cerevisiae WAT11 (Taxus cuspidata, UniProt Q6WG30); experiment: In vivo feeding of labeled substrate to yeast expressing clone S1, radio-HPLC and GC-MS of products; assay type: cell-based; conditions: 30 μM substrate
T2 construct: expressed in transfected cells; host or cells: Saccharomyces cerevisiae strain WAT11
T2 sequence (Q6WG30 with tags, fused parts or gaps limits assumed): as the sequence (Q6WG30 with tags, fused parts or gaps) above
Excerpt: This in vivo feeding protocol eliminated the uncertainties associated with microsome isolation and in vitro assay, including the instability of P450 oxygenases in yeast membranes (Schoendorf et al., Proc. Nail. Acad. Sci. USA, 98:1501-1506, 2001).
Transformed and induced yeast cells were harvested by centrifugation as described in Example 2. As a negative control for the feeding experiments, the yeast host was transformed with the pYES2.1/V5-HIS-TOPO™ vector containing a β-glucuronidase insert instead of the cytochrome P450 S1 clone. The cells were resuspended in 3 ml of fresh YPLA medium to which 30 μM of the labeled test substrate was added. Test substrates included:
The cell and test substrate suspension was incubated overnight at 30° C. with mixing (250 rpm). The incubation mixture was then treated for 15 minutes in a sonication bath and extracted twice with 3 ml of hexane:ethyl acetate (4:1 v/v). The organic extract was then dried under N2, the residue dissolved in 100 μl of acetonitrile, and an aliquot was separated by reversed-phase radio-HPLC (250 mm×4.6 mm column of Alltech (Deerfield, Ill.) Econosil C18 (5 μm); flow rate of 1 ml/min; with radio-detection of the effluent (Flow-One-Beta Series A-1000, Radiomatic Corp., Meriden, Conn.)). The following gradient was employed: 0-5 minutes at 100% Solvent A (97.99% H2O with 2% CH3CN and 0.01% H3PO4 (v/v)), 5-15 minutes at 0-50% Solvent B (99.99% CH3CN with 0.01% H3PO4 (v/v)), 15-55 minutes at 50-100% Solvent B, 55-65 minutes at 100% Solvent B, 65-70 minutes at 0-100% Solvent A, 70-75 minutes at 100% Solvent A. The HPLC eluant was collected in 1 minute fractions and the appropriate fractions containing the radiolabeled product were combined, dried under a stream of N2, and dissolved in the minimum volume of benzene for GC-MS analysis.
GC-MS analyses were performed on a Hewlett-Packard 6890 GC-MSD system using a ZB-5 capillary column (Phenomenex (Torrance, Calif.); 30 m length; 0.25 mm inner diameter; coated with a 0.25 μm film of phenyl (5%) polysiloxane). Cool on-column injection was used, with He flow rate of 0.7 ml/min and a temperature program from 40° C. to 320° C. at 20° C./min. Spectra were recorded at 70 eV.

taxoid 13α-hydroxylase = target: T3, taxoid 13α-hydroxylase (Taxus cuspidata, UniProt Q8W4T9); experiment: Feeding to yeast that functionally express taxoid 13α-hydroxylase; assay type: cell-based; conditions: product of clone S1 enzyme fed to 13α-hydroxylase yeast
T3 construct: expressed in transfected cells
T3 sequence (Q8W4T9 whole entry): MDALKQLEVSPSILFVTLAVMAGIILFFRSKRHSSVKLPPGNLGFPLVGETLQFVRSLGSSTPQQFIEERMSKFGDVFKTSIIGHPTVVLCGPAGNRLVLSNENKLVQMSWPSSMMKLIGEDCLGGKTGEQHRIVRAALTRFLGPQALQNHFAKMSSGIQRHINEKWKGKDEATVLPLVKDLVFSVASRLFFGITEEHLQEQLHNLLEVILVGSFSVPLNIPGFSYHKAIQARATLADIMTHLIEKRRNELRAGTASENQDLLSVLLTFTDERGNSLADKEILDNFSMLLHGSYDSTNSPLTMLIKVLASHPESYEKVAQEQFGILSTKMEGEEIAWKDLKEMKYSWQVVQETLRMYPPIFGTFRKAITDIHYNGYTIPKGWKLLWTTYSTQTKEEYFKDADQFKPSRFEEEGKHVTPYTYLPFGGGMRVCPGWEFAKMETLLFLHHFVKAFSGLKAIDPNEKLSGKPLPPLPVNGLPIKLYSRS
Excerpt: The taxa-4(20),11(12)-dien-5α-ol radiolabeled product of the clone S1 enzyme was isolated by HPLC, and the purified material was fed to yeast that functionally express the previously characterized taxoid 13α-hydroxylase (Jennewein et al., Proc. Natl. Acad. Sci. USA, 98:13595-13600, 2001). As discussed above, 13α-hydroxylation of a paclitaxel intermediate is believed to follow 5α-hydroxylation in the paclitaxel biosynthetic pathway (Floss and Mocek, Taxol: Science and Applications, CRC Press, Boca Raton, 191-208, 1995; and Croteau et al., Curr. Top. Plant Physiol. 15:94-104, 1996). Thus, as expected, taxa-4(20),11(12)-dien-5α-ol was quantitatively converted to taxa-4(20),11(12)-dien-5α,13α-diol by the 13α-hydroxylase.

[7] = FIG. 3, microsomes with 200 pmol recombinant enzyme, read-out: binding constant (Ks)
[8] = over a 100-fold range of substrate concentrations, pH 7.5, read-out: substrate binding constant (Ks), variation
[9] = overnight at 30° C., radio-HPLC

SMILES | hydroxylation activity in the presence of the inhibitor (5α-hydroxylase) | Vrel (average) (taxoid 5α-hydroxylase) | Vrel [1] | Kd [2, 7] [µM] | Kd [2, 8] [µM] | isomerization to the other taxadiene positional isomer [3] | Km [5] [µM] | Vrel [5] | share of minor product taxadien-diol [6, 9] [%] | share of principal product taxa-4(20),11(12)-dien-5α-ol [6, 9] [%] | other results
Clc1ccccc1C(c1ccccc1)(c1ccccc1)n1ccnc1 [clotrimazole] | negligible | – | – | – | – | – | – | – | – | – | –
Clc1ccc(COC(Cn2ccnc2)c2ccc(Cl)cc2Cl)c(Cl)c1 (stereo not shown) [miconazole] | negligible | – | – | – | – | – | – | – | – | – | –
CC1=CCC[C@@]2(C)CCC3=C(C)CC[C@@H](C[C@H]12)C3(C)C [taxa-4(5),11(12)-diene] | – | 100 | 100 | 6.5 ± 1.5 | 5 to 8 | No isomerization | 48 | 100 | < 50 | > 92 | isomerization to the other taxadiene positional isomer ([3]; listed as 3): not observed; Km [4]: ~6 µM; conversion to more polar products [6, 9]: almost quantitatively
C=C1[C@H]2C[C@@H]3CCC(C)=C(CC[C@]2(C)CC[C@@H]1O)C3(C)C [taxa-4(20),11(12)-dien-5α-ol] | – | – | – | – | – | – | – | – | – | – | conversion to taxa-4(20),11(12)-dien-5α,13α-diol (taxoid 13α-hydroxylase): quantitatively
C=C1CCC[C@@]2(C)CCC3=C(C)CC[C@@H](C[C@H]12)C3(C)C [taxa-4(20),11(12)-diene] | – | 135 | 120 | 4 ± 1 | 3 to 5 | No isomerization | 27 | 150 | ~8 | ~90 | share of other minor metabolites in product mix ([6]; also formed in negative control): ~2%
